Results taken from article PMC8364340 (Drug Design, Development and Therapy, 2021).

System: STZ-induced diabetic rats
Test: Blood glucose-lowering efficacy in STZ-induced diabetic rats
Format: in vivo
Settings: subcutaneous, 100 nmol/kg, mean ± SD, n=6

Q: For “Humulin R: Recombinant Human Insulin Injection (Humulin R, 3mL:300IU), Lilly France”, which “AUC for Glucose AUC0-24h” value (glucometer, trapezoidal rule) is on record?
A: The value was 10,990 ± 415.5 mg·h/dL.

Q: What about the “AUC for Glucose AUC0-1h” value of the same substance?
A: The value was 421 ± 20.4 mg·h/dL.

Q: What about the “AUC for Glucose AUC0-2h” value of the same substance?
A: The value was 724 ± 52.2 mg·h/dL.

Q: What about the “AUC for Glucose AUC0-4h” value of the same substance?
A: Its value is 1328 ± 100.1 mg·h/dL.

Q: And the “AUC for Glucose AUC0-6h” value?
A: The value was 2156 ± 132.0 mg·h/dL.

Q: What about the “AUC for Glucose AUC0-8h” value of the same substance?
A: The value was 3092 ± 174.8 mg·h/dL.

Q: And the “AUC for Glucose AUC0-12h” value?
A: Its value is 5070 ± 259.4 mg·h/dL.

Q: And the “AUC for Glucose AUC0-16h” value?
A: The value was 7146 ± 321.1 mg·h/dL.
